Source: ChEMBL document CHEMBL5357048, “A survey of stapling methods to increase affinity, activity, and stability of ghrelin analogues” (RSC Med Chem, 2024)

Assays:
[1] = target: T1, Growth hormone secretagogue receptor type 1 (Homo sapiens, UniProt Q92847); experiment: Displacement of [125I]ghrelin from GHSR1a in HEK293 cells by competitive binding assay; type: cell-based
[2] = target: T1, Growth hormone secretagogue receptor type 1; experiment: Displacement of […] [125I]-ghrelin from eYFP-labelled GHSR1a (unknown origin) transfected in HEK293 cells incubated for 20 mins by radioligand binding assay; type: cell-based
[3] = target: T1, Growth hormone secretagogue receptor type 1; experiment: Agonist activity at eYFP/RLuc-tagged GHSR1a (unknown origin) transfected in HEK293 cells assessed as beta-arrestin 1 recruitment incubated for 20 mins by BRET assay; type: functional, cell-based
[4] = target: T1, Growth hormone secretagogue receptor type 1; experiment: Agonist activity at eYFP/RLuc-tagged GHSR1a (unknown origin) transfected in HEK293 cells assessed as beta-arrestin 2 recruitment incubated for 20 mins by BRET assay; type: functional, cell-based

T1 sequence (Q92847 whole entry): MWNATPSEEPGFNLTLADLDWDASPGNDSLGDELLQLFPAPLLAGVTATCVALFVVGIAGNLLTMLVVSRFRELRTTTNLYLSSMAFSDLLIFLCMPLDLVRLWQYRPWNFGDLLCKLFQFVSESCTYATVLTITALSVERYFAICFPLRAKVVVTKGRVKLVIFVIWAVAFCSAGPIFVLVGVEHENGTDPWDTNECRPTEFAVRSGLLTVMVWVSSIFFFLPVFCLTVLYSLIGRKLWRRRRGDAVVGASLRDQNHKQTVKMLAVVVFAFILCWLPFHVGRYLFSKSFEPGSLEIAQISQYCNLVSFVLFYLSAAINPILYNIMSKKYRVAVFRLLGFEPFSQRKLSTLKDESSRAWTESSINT

IC50 [1] [nM]	IC50 [2] [nM]	EC50 [3] [nM]	EC50 [4] [nM]	SMILES
7.9	–	–	–	CCCCCCCC(=O)OC[C@H](NC(=O)[C@H](CO)NCC(N)=O)C(=O)N[C@@H](Cc1ccccc1)C(=O)N[C@@H](CC(C)C)C(=O)N[C@@H](CO)C(=O)N1CCC[C@H]1C(=O)N[C@@H](CCC(=O)O)C(=O)N[C@@H](Cc1c[nH]cn1)C(=O)N[C@@H](CCC(N)=O)C(=O)N[C@@H](CCCNC(=N)N)C(=O)N[C@H](C(=O)N[C@@H](CCC(N)=O)C(=O)N[C@@H](CCC(N)=O)C(=O)N[C@@H](CCCNC(=N)N)C(=O)N[C@@H](CCCCN)C(=O)N[C@@H](CCC(=O)O)C(=O)N[C@@H](CO)C(=O)N[C@@H](CCCCN)C(=O)N[C@@H](CCCCN)C(N)=O)C(C)C
–	1.44	77.2	114	CCCCCCCC(=O)OC[C@H](NC(=O)[C@H](CO)NCC(N)=O)C(=O)N[C@@H](Cc1ccccc1)C(=O)N[C@@H](CC(C)C)C(=O)N[C@@H](CO)C(=O)N1CCC[C@H]1C(=O)N[C@@H](CCC(=O)O)C(=O)N[C@@H](Cc1c[nH]cn1)C(=O)N[C@@H](CCC(N)=O)C(=O)N[C@@H](CCCNC(=N)N)C(=O)N[C@@]1(C)CCC/C=C\CCC[C@@](C)(C(=O)N[C@@H](CCC(=O)O)C(=O)N[C@@H](CO)C(=O)N[C@@H](CCCCN)C(=O)N[C@@H](CCCCN)C(=O)O)NC(=O)[C@H](CCCNC(=N)N)NC(=O)[C@H](CCC(N)=O)NC(=O)[C@H](CCC(N)=O)NC1=O
–	4.93	91.7	71.6	CCCCCCCC(=O)OC[C@H](NC(=O)[C@H](CO)NCC(N)=O)C(=O)N[C@@H](Cc1ccccc1)C(=O)N[C@@H](CC(C)C)C(=O)N[C@@H](CO)C(=O)N1CCC[C@H]1C(=O)N[C@@H](CCC(=O)O)C(=O)N[C@@H](Cc1c[nH]cn1)C(=O)N[C@@H](CCC(N)=O)C(=O)N[C@@H](CCCNC(=N)N)C(=O)N[C@H]1CSCc2ccc(cc2)CSC[C@@H](C(=O)N[C@@H](CCC(=O)O)C(=O)N[C@@H](CO)C(=O)N[C@@H](CCCCN)C(=O)N[C@@H](CCCCN)C(=O)O)NC(=O)[C@H](CCCNC(=N)N)NC(=O)[C@H](CCC(N)=O)NC(=O)[C@H](CCC(N)=O)NC1=O
